Measured values as given in patent US20150133426A1, “SUBSTITUTED PYRROLOPYRIMIDINES” (BAYER PHARMA AKTIENGESELLSCHAFT, priority 2012, published 2015).
Structures can show the parent of a compound that is named as a salt.

Biological target: T1, human full-length MKNK1 (Homo sapiens, UniProt Q9BUB5, T385D)
T1 construct: purchased Carna Biosciences 02-145; host or cells: insect cells, baculovirus expression system
Assay: MKNK1 kinase high ATP assay (TR-FRET)
Format: biochemical
Conditions: high ATP (2 mM), 15 min preincubation with enzyme, GST-MKNK1 (T344D)
Procedure: MKNK1-inhibitory activity at high ATP of compounds of the present invention after their preincubation with MKNK1 was quantified employing the TR-FRET-based MKNK1 high ATP assay as described in the following paragraphs.
A recombinant fusion protein of Glutathione-S-Transferase (GST, N-terminally) and human full-length MKNK1 (amino acids 1-424 and T344D of accession number BAA 19885.1), expressed in insect cells using baculovirus expression system and purified via glutathione sepharose affinity chromatography, was purchased from Carna Biosciences (product no 02-145) and used as enzyme. As substrate for the kinase reaction the biotinylated peptide biotin-Ahx-IKKRKLTRRKSLKG (C-terminus in amide form) was used, which can be purchased e.g. from the company Biosyntan (Berlin-Buch, Germany).
For the assay 50 nL of a 100fold concentrated solution of the test compound in DMSO was pipetted into a black low volume 384well microtiter plate (Greiner Bio-One, Frickenhausen, Germany), 2 μL of a solution of MKNK1 in aqueous assay buffer [50 mM HEPES pH 7.5, 5 mM MgCl2, 1.0 mM dithiothreitol, 0.005% (v/v) Nonidet-P40 (Sigma)] was added and the mixture was incubated for 15 min at 22° C. to allow pre-binding of the test compounds to the enzyme before the start of the kinase reaction. Then the kinase reaction was started by the addition of 3 μL of a solution of adenosine-tri-phosphate (ATP, 3.3 mM=>final conc. in the 5 μL assay volume is 2 mM) and substrate (0.1 μM=>final conc. in the 5 μL assay volume is 0.06 μM) in assay buffer and the resulting mixture was incubated for a reaction time of 30 min at 22° C. The concentration of MKNK1 was adjusted depending of the activity of the enzyme lot and was chosen appropriate to have the assay in the linear range, typical concentrations were in the range of 0.003 μg/mL. The reaction was stopped by the addition of 5 μL of a solution of TR-FRET detection reagents (5 nM streptavidine-XL665 [Cisbio Bioassays, Codolet, France] and 1 nM anti-ribosomal protein […] (pSer236)-antibody from Invitrogen [#44921G] and 1 nM LANCE EU-W1024 labeled ProteinG [Perkin-Elmer, product no. AD0071]) in an aqueous EDTA-solution (100 mM EDTA, 0.1% (w/v) bovine serum albumin in 50 mM HEPES pH 7.5).
The resulting mixture was incubated for 1 h at 22° C. to allow the formation of complex between the phosphorylated biotinylated peptide and the detection reagents. Subsequently the amount of phosphorylated substrate was evaluated by measurement of the resonance energy transfer from the Eu-chelate to the streptavidine-XL. Therefore, the fluorescence emissions at 620 nm and 665 nm after excitation at 350 nm were measured in a TR-FRET reader, e.g. a Rubystar (BMG Labtechnologies, Offenburg, Germany) or a Viewlux (Perkin-Elmer). The ratio of the emissions at 665 nm and at […] was taken as the measure for the amount of phosphorylated substrate. The data were normalised (enzyme reaction without inhibitor=0% inhibition, all other assay components but no enzyme=100% inhibition).

T1 sequence (Q9BUB5 1-424 isoform Q9BUB5-2 T344D): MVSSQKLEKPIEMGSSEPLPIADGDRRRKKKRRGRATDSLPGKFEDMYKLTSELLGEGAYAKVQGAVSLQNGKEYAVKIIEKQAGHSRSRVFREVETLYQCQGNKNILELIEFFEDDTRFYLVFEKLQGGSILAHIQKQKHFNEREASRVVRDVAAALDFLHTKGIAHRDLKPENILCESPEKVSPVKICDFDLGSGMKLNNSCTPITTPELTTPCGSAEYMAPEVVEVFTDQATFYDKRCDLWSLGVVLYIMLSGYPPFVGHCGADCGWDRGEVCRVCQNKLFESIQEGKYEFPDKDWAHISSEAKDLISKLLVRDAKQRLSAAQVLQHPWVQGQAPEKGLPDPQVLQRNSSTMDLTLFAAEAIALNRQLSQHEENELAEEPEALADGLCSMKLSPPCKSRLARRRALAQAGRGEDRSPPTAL

SMILES | IC50
CC(C)Oc1cc(F)ccc1Nc1ncnc2[nH]c3c(c12)CCCC3 [Example 1, N-(4-Fluoro-2-isopropoxyphenyl)-6,7,8,9-tetrahydro-5H-pyrimido[4,5-b]indol-4-amine] | 43 nM
c1nc(Nc2ccc3[nH]ncc3c2)c2c3c([nH]c2n1)CCCC3 [Example 2, N-(1H-Indazol-5-yl)-6,7,8,9-tetrahydro-5H-pyrimido[4,5-b]indol-4-amine] | 27 nM
COc1ccc(Nc2ncnc3[nH]c4c(c23)CC(C(=O)NCCCS(C)(=O)=O)CC4)c(OC)c1 (racemic) [Example 73, (RS)-4-[(2,4-Dimethoxyphenyl)amino]-N-[3-(methylsulfonyl)propyl]-6,7,8,9-tetrahydro-5H-pyrimido[4,5-b]indole-6-carboxamide] | 4140 nM
COCC1(OC)CCc2[nH]c3ncnc(Nc4cc(Cl)c(Cl)cc4OC)c3c2C1 (racemic) [Example 140] | 339 nM
O=C(O)C1CCc2[nH]c3ncnc(Nc4ccc5[nH]ncc5c4)c3c2C1 (racemic) [Example 6, (RS)-4-(1H-Indazol-5-ylamino)-6,7,8,9-tetrahydro-5H-pyrimido[4,5-b]indole-6-carboxylic acid] | 89 nM
CCOC(=O)C1CCc2[nH]c3ncnc(Nc4cc(Cl)ccc4OC(C)C)c3c2C1 (racemic) [Example 177, (RS)-Ethyl 4-{[5-chloro-2-(propan-2-yloxy)phenyl]amino}-6,7,8,9-tetrahydro-5H-pyrimido[4,5-b]indole-6-carboxylate] | 17000 nM
O=C(O)C1CCc2[nH]c3ncnc(Nc4ccc(Cl)c(Cl)c4)c3c2C1 (racemic) [Example 233, (RS)-4-[(3,4-Dichlorophenyl)amino]-6,7,8,9-tetrahydro-5H-pyrimido[4,5-b]indole-6-carboxylic acid] | 149 nM
Cc1cc(=O)oc2cc(Nc3ncnc4[nH]c5c(c34)CC(C(=O)NCCCS(C)(=O)=O)CC5)ccc12 (racemic) [Example 33, (RS)-4-[(4-Methyl-2-oxo-2H-chromen-7-yl)amino]-N-[3-(methylsulfonyl)propyl]-6,7,8,9-tetrahydro-5H-pyrimido[4,5-b]indole-6-carboxamide] | 394 nM
c1nc(Nc2ccc3[nH]ncc3c2)c2c3c([nH]c2n1)CCSC3 [Example 66, N-(1H-Indazol-5-yl)-5,7,8,9-tetrahydrothiopyrano[3′,4′:4,5]pyrrolo[2,3-d]pyrimidin-4-amine] | 43 nM
c1ccc(CN2CCc3[nH]c4ncnc(Nc5ccc6[nH]ncc6c5)c4c3C2)cc1 [Example 24, 6-Benzyl-N-(1H-indazol-5-yl)-6,7,8,9-tetrahydro-5H-pyrido[3′,4′:4,5]pyrrolo[2,3-d]pyrimidin-4-amine] | 367 nM
O=[N+]([O-])c1ccc2c(c1)N(c1ncnc3[nH]c4c(c13)CCCC4)CC2 [Example 121] | ≥ 20000 nM
Clc1ccc(Nc2ncnc3[nH]c4c(c23)CCCC4)cc1Cl [Example 114] | 1490 nM
CS(=O)(=O)CCCNC(=O)C1CCc2[nH]c3ncnc(Nc4ccccc4OCC4CC4)c3c2C1 (racemic) [Example 151, (RS)-4-{[2-(Cyclopropylmethoxy)phenyl]amino}-N-[3-(methylsulfonyl)propyl]-6,7,8,9-tetrahydro-5H-pyrimido[4,5-b]indole-6-carboxamide] | 190 nM
COCC1(OC)CCc2[nH]c3ncnc(Nc4cc5[nH]c(=O)[nH]c5cc4Cl)c3c2C1 (racemic) [Example 131] | 5700 nM
COc1ccc(C(F)(F)F)cc1Nc1ncnc2[nH]c3c(c12)CC(C(=O)O)CC3 (racemic) [Example 103, (RS)-4-{[2-Methoxy-5-(trifluoromethyl)phenyl]amino}-6,7,8,9-tetrahydro-5H-pyrimido[4,5-b]indole-6-carboxylic acid] | 400 nM
Cc1nc2cc(Nc3ncnc4[nH]c5c(c34)CC(C(=O)NCCCS(C)(=O)=O)CC5)ccc2s1 (racemic) [Example 50, (RS)-4-[(2-Methyl-1,3-benzothiazol-5-yl)amino]-N-[3-(methylsulfonyl)propyl]-6,7,8,9-tetrahydro-5H-pyrimido[4,5-b]indole-6-carboxamide] | 6410 nM
COCC1(OC)CCc2[nH]c3ncnc(Nc4cc5cn[nH]c5cc4OC(C)C)c3c2C1 (racemic) [Example 231, (RS)-6-Methoxy-6-(methoxymethyl)-N-[6-(propan-2-yloxy)-1H-indazol-5-yl]-6,7,8,9-tetrahydro-5H-pyrimido[4,5-b]indol-4-amine] | 50 nM
CCNC(=O)C1CCc2[nH]c3ncnc(N4CCc5ccccc54)c3c2C1 (racemic) [Example 207, (RS)-4-(2,3-Dihydro-1H-indol-1-yl)-N-ethyl-6,7,8,9-tetrahydro-5H-pyrimido[4,5-b]indole-6-carboxamide] | 3140 nM
CC(C)NC(=O)C1CCc2[nH]c3ncnc(N4CCc5ccccc54)c3c2C1 (racemic) [Example 208, (RS)-4-(2,3-Dihydro-1H-indol-1-yl)-N-(propan-2-yl)-6,7,8,9-tetrahydro-5H-pyrimido[4,5-b]indole-6-carboxamide] | 2750 nM
COc1ccc(Cl)cc1Nc1ncnc2[nH]c3c(c12)CC(C(=O)NCCCS(C)(=O)=O)CC3 (racemic) [Example 149, (RS)-4-[(5-Chloro-2-methoxyphenyl)amino]-N-[3-(methylsulfonyl)propyl]-6,7,8,9-tetrahydro-5H-pyrimido[4,5-b]indole-6-carboxamide] | 10 nM
COc1cc2nc(C)sc2cc1Nc1ncnc2[nH]c3c(c12)CC(C(=O)NCCCS(C)(=O)=O)CC3 (racemic) [Example 68, (RS)-4-[(5-Methoxy-2-methyl-1,3-benzothiazol-6-yl)amino]-N-[3-(methylsulfonyl)propyl]-6,7,8,9-tetrahydro-5H-pyrimido[4,5-b]indole-6-carboxamide] | 6160 nM
COc1ccc(F)cc1Nc1ncnc2[nH]c3c(c12)CC(C(=O)NCCCS(C)(=O)=O)CC3 (racemic) [Example 39, (RS)-4-[(5-Fluoro-2-methoxyphenyl)amino]-N-[3-(methylsulfonyl)propyl]-6,7,8,9-tetrahydro-5H-pyrimido[4,5-b]indole-6-carboxamide] | 59 nM
Cc1ccc(Nc2ncnc3[nH]c4c(c23)CC(C(=O)NCCCS(C)(=O)=O)CC4)c(OC(F)F)c1 (racemic) [Example 156, (RS)-4-{[2-(Difluoromethoxy)-4-methylphenyl]amino}-N-[3-(methylsulfonyl)propyl]-6,7,8,9-tetrahydro-5H-pyrimido[4,5-b]indole-6-carboxamide] | ≥ 20000 nM
CS(=O)(=O)CCCNC(=O)C1CCc2[nH]c3ncnc(Nc4ccccc4OC(F)F)c3c2C1 (racemic) [Example 154, (RS)-4-{[2-(Difluoromethoxy)phenyl]amino}-N-[3-(methylsulfonyl)propyl]-6,7,8,9-tetrahydro-5H-pyrimido[4,5-b]indole-6-carboxamide] | 469 nM
COc1cc(F)c(Cl)cc1Nc1ncnc2[nH]c3c(c12)CC(C(=O)NCCCS(C)(=O)=O)CC3 (racemic) [Example 157, (RS)-4-[(5-Chloro-4-fluoro-2-methoxyphenyl)amino]-N-[3-(methylsulfonyl)propyl]-6,7,8,9-tetrahydro-5H-pyrimido[4,5-b]indole-6-carboxamide] | 444 nM
COc1cc2[nH]ncc2cc1Nc1ncnc2[nH]c3c(c12)CC(C(=O)O)CC3 (racemic) [Example 184, (RS)-4-[(6-Methoxy-1H-indazol-5-yl)amino]-6,7,8,9-tetrahydro-5H-pyrimido[4,5-b]indole-6-carboxylic acid hydrochloride (1:1)] | 26 nM
CN1CCN(C(=O)C2CCc3[nH]c4ncnc(N5CCc6ccccc65)c4c3C2)CC1 (racemic) [Example 211, (RS)-[4-(2,3-Dihydro-1H-indol-1-yl)-6,7,8,9-tetrahydro-5H-pyrimido[4,5-b]indol-6-yl](4-methylpiperazin-1-yl)methanone] | 3410 nM
COc1cccc(C)c1Nc1ncnc2[nH]c3c(c12)CC(C(=O)NCCCS(C)(=O)=O)CC3 (racemic) [Example 75, (RS)-4-[(2-Methoxy-6-methylphenyl)amino]-N-[3-(methylsulfonyl)propyl]-6,7,8,9-tetrahydro-5H-pyrimido[4,5-b]indole-6-carboxamide] | 7670 nM
